Here are results for four compounds from ChEMBL document CHEMBL2440011, “Screening for inhibitors of the hepatitis C virus internal ribosome entry site RNA” (Bioorg Med Chem, 2013).

The source made the active and inactive calls. No cut-off for these calls is given here.

Assay [1] in a line: Binding affinity to 5'-terminal cyanine dye-labeled IRES subdomain 2a RNA (unknown origin) by FRET assay in presence of Mg2+.
Assay [2] is described as follows: Binding affinity to cap RNA (unknown origin) assessed as inhibition of cap-dependent firefly luciferase reporter translation. (In a reporter assay the amount or activity of a reporter protein is the signal.)
Assay [3] can be described thus: Binding affinity to 5'-terminal cyanine dye-labeled IRES subdomain 2a RNA (unknown origin) at 200 uM by FRET assay in presence of tRNA.
A short description of assay [4]: Binding affinity to 5'-terminal cyanine dye-labeled IRES subdomain 2a RNA (unknown origin) at 200 uM by FRET assay.
The test system of assay [5] is Internal ribosome entry site (IRES). As to the kind of experiment: Binding affinity to HCV IRES RNA assessed as inhibition of RNA translation at […] by luciferase reporter gene assay. The conditions noted are these: Hepacivirus hominis.

Take `CN(C)CCCn1c(N)nc2ccc3c(c21)CC(CN(C)C)CO3` (stereo not drawn): the Activity result in assay [1] was “Dose-dependent effect”.
`CN(C)CCCNc1nc2ccc(N)cc2o1`: in assay [2], the inhibition entry is “inactive”. The result in assay [3] and in assay [4] was Active. The Activity entry in assay [1] was “Dose-dependent effect”. Also, in assay [5], the inhibition worked out at 30%.
With `CN(C)CC1COc2ccc3nc4n(c3c2C1)CC(CN(C)C)CN4` (stereo not drawn), the outcome in assay [1] was Active.
Turning to `CN(C)CCCNc1nc2cc(N)ccc2o1`, the result in assay [4] was Active.

As a reminder, the inhibition is the share of the control response that was lost under treatment.
